pEC50: −log10 of the molar value.

For this assay, the target named is CXCR4 (Homo sapiens, UniProt P61073). The experiment in a line: primary 1536 w β-arrestin recruitment assay (FRET, β-lactamase reporter) in U2OS cells overexpressing CXCR4. It counts as cell-based. Further details: host or cells: U2OS. Conditions: for Emax: U2OS, read-out: CXCR4 b-arrestin Emax (%); for activity in primary β-arrestin assay: SAR discussion. As to the method: In an effort to identify CXCR4 activators from the NIH Molecular Library Small Molecule Repository (MLSMR), a primary screening assay was developed to measure β-arrestin recruitment to the activated G-protein coupled receptor by Florescence Resonance Energy Transfer (FRET) in U2OS cells overexpressing the CXCR4 receptor engineered with a β-lactamase (bla) reporter system (Invitrogen cat #K1779). CXCR4-bla cells plated in 1536 w were stimulated in the presence of 10 uM compound concentration. […] Using this approach, 370,620 compounds from the NIH MLSMR were successfully screened and 303 hits were identified (hit rate=0.08%; Z′=0.83). […] These compounds were graded according to activity and structure resulting in 86 compounds that met criteria as potential CXCR4 agonists for further characterization.
Chemical stability, synthetic tractability, solubility and complete dose response and potency criteria led to the prioritization of the 5-aryl-2-cyclopropyl oxazole scaffold, represented by primary hit Compound 2 (Table 1). Early structure-activity relationship was established around the 5-aryl-2-cyclopropyl oxazole core with commercially available analogs with diverse substituents in the sulfonanilide ring of the scaffold. […] Keeping the 2-OMe substituent constant a small set of electron withdrawing and electron rich substituents at the 5-position of the anilide ring were screened (entries 16-19).
Background: Activated receptors often draw arrestin, which recruitment assays turn into a signal.

Sequence of CXCR4 (P61073 whole entry): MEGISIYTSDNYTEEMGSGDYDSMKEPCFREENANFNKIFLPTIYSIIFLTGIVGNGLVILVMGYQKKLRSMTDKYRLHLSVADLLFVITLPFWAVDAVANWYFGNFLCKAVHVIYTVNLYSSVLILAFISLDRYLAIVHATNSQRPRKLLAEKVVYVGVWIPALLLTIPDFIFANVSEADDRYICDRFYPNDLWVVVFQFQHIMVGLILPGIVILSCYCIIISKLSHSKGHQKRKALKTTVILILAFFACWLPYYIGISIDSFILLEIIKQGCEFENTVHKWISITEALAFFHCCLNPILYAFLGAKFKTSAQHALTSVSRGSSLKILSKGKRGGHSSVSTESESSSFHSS

In general, Emax refers to the greatest response seen or fitted, relative to the assay's reference. Turning to `CCc1ccccc1NS(=O)(=O)c1ccc(-c2cnc(C3CC3)o2)cc1` [compound 3], the Emax turned out to be 38%. For orientation: pEC50 means the EC50 on a negative log10 scale, so that one unit is a factor of ten. As to `CCOc1ccccc1NS(=O)(=O)c1ccc(-c2cnc(C3CC3)o2)cc1` [compound 5], the Emax came to 46%. The same molecule gave a pEC50 (1536 w screening platform) of 6.00.

As to `CCOc1ccc(NS(=O)(=O)c2ccc(-c3cnc(C4CC4)o3)cc2)cc1` [compound 9], the Emax was found to be 38%. For `Cc1cccc(NS(=O)(=O)c2ccc(-c3cnc(C4CC4)o3)cc2)c1C` [compound 10], the maximal effect (Emax) was found to be 40%. On the same count and under the same terms, to `Cc1ccc(NS(=O)(=O)c2ccc(-c3cnc(C4CC4)o3)cc2)c(C)c1` [compound 12] belongs 38%.

In the case of `Cc1ccc(C)c(NS(=O)(=O)c2ccc(-c3cnc(C4CC4)o3)cc2)c1` [compound 13], the “activity in primary β-arrestin assay” value was “most active among the dimethyl analogs” and the Emax stood at 42%. For `Cc1cccc(C)c1NS(=O)(=O)c1ccc(-c2cnc(C3CC3)o2)cc1` [compound 14], the “activity in primary β-arrestin assay” value was “most active among the dimethyl analogs” and the Emax came to 45%. Regarding `Cc1cc(C)cc(NS(=O)(=O)c2ccc(-c3cnc(C4CC4)o3)cc2)c1` [compound 15], the Emax amounted to 39%. For the molecule `COc1ccc(F)cc1NS(=O)(=O)c1ccc(-c2cnc(C3CC3)o2)cc1` [compound 17], the Emax stood at 42%. On to `COc1ccc(NS(=O)(=O)c2ccc(-c3cnc(C4CC4)o3)cc2)cc1OC` [compound 20], for which the “activity in primary β-arrestin assay” value is “inactive or had marginal activity”.

The values are drawn from patent publication US20250136617A1 (The Regents of the University of Colorado, A Body Corporate, priority 2022, published 2025).
